Structures can show the parent of a compound that is named as a salt. One block for each compound: values may come before it.
How the values were obtained:
rodents = conditions: high doses (up to 100 mg/kg/day), intraperitoneal or oral gavage; cited from earlier work
PAMPA assay = type: in vitro ADME; conditions: read-out: permeability of reference compounds
Protocol: To determine the passive membrane diffusion rates, Corning Gentest Pre-coated PAMPA Plate System was used. The acceptor plate was prepared by adding 200 μL of 0.1 M phosphate buffer (pH 4.5–8.6) supplemented with 5% DMSO to each well, and then 300 μL of 30 μM compounds in 0.1 M phosphate buffer (pH 4.5–8.6) with 5% DMSO were added to the donor wells. The acceptor plate was then placed on top of the donor plate and incubated at 37 °C for 4 h without agitation. After the incubation, the plates were separated and the solutions from each well of both the acceptor plate and the donor plate were transferred to 96-well plates and mixed with acetonitrile. The final concentrations of compounds in both donor and acceptor wells, as well as the concentrations of the initial donor solutions, were analyzed using liquid chromatography-tandem mass spectrometry (LC-MS/MS). The permeability of the compounds was calculated as described in a previous study. […] Two technical replicates were performed.

[1] = tested on: MITOL and mitochondrial proteins in C2C12 myoblasts; assay: Western blot of mitochondrial proteins in C2C12 myoblasts; type: cell-based, mouse; conditions: 48 h
Protocol: (§1) Murine myoblast C2C12 cells were used for various cellular experiments in this study. Two different sources of C2C12 cells were used depending on the experiment: C2C12 cells obtained from RIKEN BRC (RCB0987) were used for gene expression, mtDNA quantification, and mitochondrial morphology analysis; C2C12 cells from ATCC (CRL-1772) were used for OCR analysis. Cells were cultured in Dulbecco’s Modified Eagle Medium (DMEM; Sigma-Aldrich or Nacalai Tesque), supplemented with 10% FBS and 1% penicillin–streptomycin. Cells were maintained in a humidified incubator at 37°C with 5% CO2.
(§2) For cellular experiments, berberine or quinoid-type berberrubine (Q-BRB) was dissolved in DMSO, and berberrubine acetic acid adduct (AcA-BRB) was dissolved in distilled H2O. Each compound was diluted in culture medium to the indicated final concentrations.
Proteins in sample buffer were separated by SDS-PAGE and transferred to Immobilon-P PVDF membranes (IPVH00010, Millipore). Blots were probed with the indicated antibodies, and protein bands on the blot were visualized using Chemi-Lumi One L (07880-70, Nacalai Tesque) or Immobilon Western Chemiluminescent HRP Substrate (WBKLS0500, Millipore). Band images were captured using a LuminoGraph I imager (WSE-6100, ATTO). Relative band intensities were quantified using Fiji/ImageJ software. Unprocessed western blot images corresponding to the data presented in the main and supplementary figures are provided in Supplementary Figures 11–16.

[2] = tested on: MITOL and Tom20 mRNA in C2C12 cells; assay: qRT-PCR analysis of C2C12 cells; type: cell-based, mouse; conditions: C2C12, 5 μM or 10 μM
Protocol: as §1, §2
Total RNA was extracted from C2C12 cells using an RNA extraction kit (RNeasy Mini Kit, Qiagen). After washing with PBS, cells were collected by trypsinization and centrifugation at 500 × g for 5 min, and the pellet was lysed according to the manufacturer’s instructions. The extracted RNA was reverse-transcribed into cDNA using a reverse transcription kit (ReverTra Ace, TOYOBO). Quantitative real-time PCR was performed using a qPCR master mix (KAPA SYBR FAST qPCR Master Mix (2X) Kit, KAPABIOSYSTEMS) and a thermal cycler (StepOnePlus, Applied Biosystems). Gene expression levels were normalized to GAPDH. Primer sets used for qRT-PCR are listed in Supplementary Table 1.

C2C12 cells = assay: Quantification of mitochondrial DNA (mtDNA/nDNA ratio); type: cell-based, mouse; conditions: C2C12, 10 μM
Protocol: as §1
To generate mMITOL-knockout C2C12 cells, CRISPR-Cas9 vectors were constructed. Single-guide RNAs (sgRNAs) targeting the mouse MITOL gene were designed using the online tool CRISPOR (http://crispor.org). The oligonucleotide pair corresponding to the mMITOL guide RNA (gRNA sequence, 5′-[…]-3′) was annealed and ligated into the PX459 vector (48139, Addgene). C2C12 cells were transfected using Lipofectamine 3000 (Thermo Fisher Scientific), and knockout clones were selected by serial dilution.
To assess mitochondrial DNA (mtDNA) content, the mtDNA/nuclear DNA (nDNA) ratio was determined by extracting DNA from C2C12 cells using the NucleoSpin Tissue Kit (Takara Bio), followed by real-time quantitative PCR analysis with specific primer sets for mtDNA (16S rRNA or ND1) and nDNA (Hexokinase 2; HK2) (Supplementary Table 2). Real-time quantitative PCR was performed using TB Green Premix Ex Taq II (Takara Bio) and a Thermal Cycler Dice Real-Time System (Takara Bio). The analysis of mtDNA/nDNA ratios was conducted using the ΔΔCt method as previously described.

[3] = Water solubility, roughly examined; type: physicochemical; conditions: roughly examined
Protocol: Finally, we compared the water solubility of the three berberrubine forms. The solubility of three compounds, the reddish-black solid (quinoid-type berberrubine), the reddish-brown solid (berberrubine acetic acid salt), and the yellow solid (berberrubine acetic acid adduct), in water was roughly examined. […] On the other hand, the reddish-brown solid dissolved in about 30 mg in 1 mL of water.

Compound: COc1ccc2cc3[n+](cc2c1O)CCc1cc2c(cc1-3)OCO2 [berberrubine chloride]
- hepatic toxicity in rodents (rodents): hepatic toxicity
- renal toxicity in rodents (rodents): renal toxicity

Compound: Cc1cc(=O)n(-c2ccccc2)n1C [antipyrine, reference compound]
- Papp at 4 h (PAMPA assay): 24 ×10⁻⁶ cm/s

Compound: COc1ccc2cc3[n+](cc2c1OC)CCc1cc2c(cc1-3)OCO2 [berberine, reference compound]
- levels of Tom20, Mfn2, HSP60 and ATP5a proteins ([1]; C2C12, 5 μM or 10 μM): not observed
- MITOL expression (western blot) ([1]; C2C12, 10 μM, berberrubine used as quinoid-type form): did not increase
- mRNA levels of MITOL and Tom20 [2]: not observed
- mitochondrial abundance (mtDNA 16S rRNA or ND1 / nuclear HK2) (C2C12 cells): did not induce MITOL expression or increase mitochondrial content

Results, then the compound that gave them:

- Papp at 4 h (PAMPA assay): 0.084 ×10⁻⁶ cm/s
Compound: O=C(O)c1cc(/N=N/c2ccc(S(=O)(=O)Nc3ccccn3)cc2)ccc1O [sulfasalazine, reference compound]

- Papp at 4 h (PAMPA assay): 3 ×10⁻⁶ cm/s
Compound: COCCc1ccc(OCC(O)CNC(C)C)cc1 (stereo not shown) [metoprolol, reference compound]

- solubility [3]: ≥ 30 mg/mL
Compound: COc1ccc2cc3n(cc-2c1=O)CCc1cc2c(cc1-3)OCO2 [berberrubine acetic acid salt]

— publication PMC13091788 (NPJ Aging, 2026)
